From the supplement of paper PMC10307832

Legend:
Experiment in all cases: relative viability (nuclei count vs DMSO), 5 days (fraction); higher = more cells survive
[1] = compound: CC1CC(=O)N(C2=CN=C(N=C2N1C3CCCC3)NC4=C(C=C(C=C4)C(=O)NC5CCN(CC5)C)OC)C [NPK76-II-72-1] + CC1(C)CCC(c2ccc(Cl)cc2)=C(CN2CCN(c3ccc(C(=O)NS(=O)(=O)c4ccc(N[C@H](CCN5CCOCC5)CSc5ccccc5)c(S(=O)(=O)C(F)(F)F)c4)cc3)CC2)C1 [Navitoclax] (partner 0.5 µM)
Procedure, shortened: (§1)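 Lung cancer cell lines were pin-tool dosed in 1536-well plates on the day after seeding, with either a lone drug or a fixed anchor-drug dose plus five library-drug doses (not always all listed) in √10 steps. Nuclei were counted on 4× images after 5 days. Relative viability is the ratio of treated-well to vehicle-well nuclei counts, with each value a median of duplicate plates.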

[2] = compound: CC[C@@H]1C(=O)N(C)c2cnc(Nc3ccc(C(=O)NC4CCN(C)CC4)cc3OC)nc2N1C1CCCC1 [BI-2536]
Procedure, shortened: (§2)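 Viability here means nuclei in treated wells divided by nuclei in vehicle wells, reported as the median across plates. Only plates with control CV below 25% and at least one doubling passed. Lung cancer cell lines in 1536-well plates were exposed to five √10-spaced library-drug doses for 5 days and counted from 4× Hoechst images in MetaXpress.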

[3] = compound: CC1CC(=O)N(C2=CN=C(N=C2N1C3CCCC3)NC4=C(C=C(C=C4)C(=O)NC5CCN(CC5)C)OC)C [NPK76-II-72-1]
Procedure, shortened: as §2

[4] = compound: CC[C@@H]1C(=O)N(C)c2cnc(Nc3ccc(C(=O)NC4CCN(C)CC4)cc3OC)nc2N1C1CCCC1 [BI-2536] + N=C(N)NC(=N)NCCc1ccccc1 [Phenformin] (partner 250 µM)
Procedure, shortened: as §1

Row | Cell Line | relative viability ([1]; first compound 0.01 µM) | relative viability ([1]; first compound 0.03162 µM) | relative viability ([1]; first compound 0.1 µM) | relative viability ([1]; first compound 0.3162 µM) | relative viability ([1]; first compound 1 µM) | relative viability ([2]; 0.01 µM) | relative viability ([2]; 0.03162 µM) | relative viability ([2]; 0.1 µM) | relative viability ([2]; 0.3162 µM) | relative viability ([2]; 1 µM) | relative viability ([3]; 0.01 µM) | relative viability ([3]; 0.03162 µM) | relative viability ([3]; 0.1 µM) | relative viability ([3]; 0.3162 µM) | relative viability ([3]; 1 µM) | relative viability ([4]; first compound 0.01 µM) | relative viability ([4]; first compound 0.03162 µM) | relative viability ([4]; first compound 0.1 µM) | relative viability ([4]; first compound 0.3162 µM) | relative viability ([4]; first compound 1 µM)
1 | Calu-6 | 0.879 | 0.942 | 0.894 | 0.809 | 0.889 | 1.02 | 0.861 | 0.51 | 0.117 | 0.111 | 0.988 | 1.05 | 1.03 | 0.954 | 0.996 | – | – | – | – | –
2 | LC-2-ad | 0.469 | 0.501 | 0.599 | 0.395 | 0.541 | 0.954 | 0.703 | 0.222 | 0.211 | 0.215 | 1.01 | 0.996 | 0.952 | 1 | 0.978 | 0.609 | 0.545 | 0.257 | 0.203 | 0.292
3 | CAL-12T | 1.15 | 1.32 | 1.22 | 1.02 | 1.18 | 0.882 | 0.849 | 0.718 | 0.159 | 0.198 | 0.933 | 1.02 | 1.01 | 0.927 | 1.15 | 0.543 | 0.422 | 0.289 | 0.134 | 0.115
4 | RERF-LC-KJ | 0.878 | 0.925 | 1.17 | 0.851 | 1.14 | 0.987 | 1.01 | 0.765 | 0.211 | 0.237 | 0.959 | 1.01 | 0.986 | 0.889 | 1.06 | 0.403 | 0.297 | 0.216 | 0.211 | 0.224
5 | NCI-H1650 | 1.08 | 1.12 | 1.23 | 1.12 | 1.07 | 0.889 | 0.801 | 0.219 | 0.14 | 0.143 | 0.86 | 0.993 | 0.929 | 0.891 | 0.996 | 0.425 | 0.3 | 0.166 | 0.141 | 0.134
6 | ABC-1 | – | – | – | – | – | 0.892 | 0.879 | 0.212 | 0.395 | 0.265 | 0.759 | 0.886 | 0.686 | 0.955 | 0.855 | 0.307 | 0.256 | 0.222 | 0.196 | 0.191
7 | NCI-H1299 | 1.04 | 1.05 | 1.01 | 1.03 | 1.04 | 0.968 | 1.05 | 0.924 | 0.291 | 0.266 | 1 | 1.03 | 1.01 | 1.01 | 1.02 | – | – | – | – | –
8 | EBC-1 | 0.35 | 0.36 | 0.376 | 0.417 | 0.485 | 1.04 | 0.804 | 0.432 | 0.224 | 0.202 | 0.917 | 1.02 | 0.94 | 0.984 | 1.07 | – | – | – | – | –
9 | NCI-H2342 | – | – | – | – | – | 0.818 | 0.909 | 0.865 | 0.418 | 0.393 | 1.02 | 1.08 | 0.954 | 0.823 | 1.04 | 0.547 | 0.586 | 0.649 | 0.283 | 0.341
10 | NCI-H650 | – | – | – | – | – | 0.819 | 0.821 | 0.589 | 0.198 | 0.131 | 0.971 | 0.946 | 0.927 | 0.734 | 1.01 | 0.462 | 0.438 | 0.163 | 0.154 | 0.14
11 | NCI-H358 | – | – | – | – | – | 0.981 | 0.744 | 0.204 | 0.118 | 0.136 | 0.9 | 0.976 | 1.01 | – | 1.05 | 0.363 | 0.172 | 0.0663 | 0.0665 | 0.072
12 | NCI-H1563 | – | – | – | – | – | 0.985 | 1.16 | 0.924 | 0.733 | 0.573 | 0.949 | 0.978 | 1 | 0.94 | 0.982 | 0.719 | 0.63 | 0.683 | 0.525 | 0.498
13 | SW 900 | – | – | – | – | – | 0.883 | 0.937 | 0.696 | 0.244 | 0.205 | 0.786 | 0.757 | 0.796 | 0.936 | 0.947 | 0.683 | 0.564 | 0.493 | 0.106 | 0.146
14 | IA-LM | 0.752 | 1.17 | 0.67 | 0.733 | 1 | 0.954 | 0.912 | 0.649 | 0.0924 | 0.061 | 0.871 | 0.836 | 0.919 | 0.842 | 1.14 | – | – | – | – | –
15 | NCI-H1703 | 0.961 | 1.59 | 1.27 | 1.19 | 1.38 | 0.896 | 0.614 | 0.525 | 0.158 | 0.131 | 0.842 | 1.07 | 0.935 | 0.979 | 1.27 | – | – | – | – | –
16 | LCLC-103H | – | – | – | – | – | 0.997 | 1.05 | 0.961 | 0.491 | 0.197 | 0.984 | 1.01 | 0.896 | 1.05 | 0.952 | 0.306 | 0.338 | 0.295 | 0.152 | 0.143
17 | NCI-H1648 | – | – | – | – | – | 0.98 | 0.826 | 0.63 | 0.301 | 0.267 | 0.861 | 0.943 | 0.537 | 0.719 | 0.773 | – | – | – | – | –
